Results taken from ChEMBL document CHEMBL1909046, “DrugMatrix in vitro pharmacology data”.

How the values were obtained:
[1] = target: Mitogen-activated protein kinase 14 (Homo sapiens, UniProt Q16539); set-up: species or system Escherichia coli;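 also: inhibition of p38alpha enzyme activity in a biochemical kinase assay, with myelin basic protein serving as substrate; in other assays of this panel Not Active means under 50% inhibition at 10 µM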
Cytochrome P450 1A2 = target: T1, Cytochrome P450 1A2 (Homo sapiens, UniProt P05177); conditions: bti-tn-5b1-4; also: in other assays of this panel Not Active means under 50% inhibition at 10 µM
T1 sequence (P05177 whole entry): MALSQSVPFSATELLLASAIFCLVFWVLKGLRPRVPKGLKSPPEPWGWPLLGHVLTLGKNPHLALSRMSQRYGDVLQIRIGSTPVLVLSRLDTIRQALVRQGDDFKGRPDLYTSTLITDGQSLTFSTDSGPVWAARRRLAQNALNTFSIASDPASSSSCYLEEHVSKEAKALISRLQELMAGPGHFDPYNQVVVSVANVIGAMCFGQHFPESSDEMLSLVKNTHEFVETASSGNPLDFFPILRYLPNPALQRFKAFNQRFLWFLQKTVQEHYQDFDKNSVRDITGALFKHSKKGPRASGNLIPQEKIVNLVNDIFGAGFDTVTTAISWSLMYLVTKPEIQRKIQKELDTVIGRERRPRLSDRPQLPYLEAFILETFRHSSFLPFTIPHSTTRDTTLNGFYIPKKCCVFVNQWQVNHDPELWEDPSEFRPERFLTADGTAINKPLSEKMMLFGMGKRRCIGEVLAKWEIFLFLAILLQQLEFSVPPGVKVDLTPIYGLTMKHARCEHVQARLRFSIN

Nitric oxide synthase 1 = Nitric oxide synthase 1 (Rattus norvegicus, UniProt P29476); type: tissue-based, Cerebellum; also: in other assays of this panel Not Active means under 50% inhibition at 10 µM
[2] = target: Epidermal growth factor receptor (Homo sapiens, UniProt P00533); experiment: DRUGMATRIX: Protein Tyrosine Kinase, EGF Receptor enzyme inhibition (substrate: Poly(Glu:Tyr)); type: cell-based, Insect cells; conditions: insect cells; Not Active = under 50% inhibition at 10 µM
[3] = target: Matrix metalloproteinase-9 (Homo sapiens, UniProt P14780); experiment: biochemical; type: cell-based;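 also: inhibition of isolated MMP-9 enzyme activity toward a synthetic peptide substrate, from the DrugMatrix protease screening panel; in other assays of this panel Not Active means under 50% inhibition at 10 µM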
Cytochrome P450 2C9 = Cytochrome P450 2C9 (Homo sapiens, UniProt P11712); conditions: bti-tn-5b1-4; also: in other assays of this panel Not Active means under 50% inhibition at 10 µM
Chain of Cytochrome P450 2C9 (P11712 whole entry): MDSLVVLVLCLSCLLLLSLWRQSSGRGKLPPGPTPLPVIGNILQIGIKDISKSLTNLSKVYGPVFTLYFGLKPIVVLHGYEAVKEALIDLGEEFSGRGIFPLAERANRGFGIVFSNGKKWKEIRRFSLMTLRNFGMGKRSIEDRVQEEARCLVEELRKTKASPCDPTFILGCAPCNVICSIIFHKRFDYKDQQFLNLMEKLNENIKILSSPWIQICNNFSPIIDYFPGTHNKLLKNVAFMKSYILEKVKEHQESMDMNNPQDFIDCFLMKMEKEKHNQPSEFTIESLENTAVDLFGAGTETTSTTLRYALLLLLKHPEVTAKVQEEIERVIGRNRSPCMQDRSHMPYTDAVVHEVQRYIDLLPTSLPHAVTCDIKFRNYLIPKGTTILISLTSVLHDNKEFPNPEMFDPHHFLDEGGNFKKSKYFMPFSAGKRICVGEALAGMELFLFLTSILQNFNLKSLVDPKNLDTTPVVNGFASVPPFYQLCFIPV

Chain of Matrix metalloproteinase-9 (P14780 whole entry): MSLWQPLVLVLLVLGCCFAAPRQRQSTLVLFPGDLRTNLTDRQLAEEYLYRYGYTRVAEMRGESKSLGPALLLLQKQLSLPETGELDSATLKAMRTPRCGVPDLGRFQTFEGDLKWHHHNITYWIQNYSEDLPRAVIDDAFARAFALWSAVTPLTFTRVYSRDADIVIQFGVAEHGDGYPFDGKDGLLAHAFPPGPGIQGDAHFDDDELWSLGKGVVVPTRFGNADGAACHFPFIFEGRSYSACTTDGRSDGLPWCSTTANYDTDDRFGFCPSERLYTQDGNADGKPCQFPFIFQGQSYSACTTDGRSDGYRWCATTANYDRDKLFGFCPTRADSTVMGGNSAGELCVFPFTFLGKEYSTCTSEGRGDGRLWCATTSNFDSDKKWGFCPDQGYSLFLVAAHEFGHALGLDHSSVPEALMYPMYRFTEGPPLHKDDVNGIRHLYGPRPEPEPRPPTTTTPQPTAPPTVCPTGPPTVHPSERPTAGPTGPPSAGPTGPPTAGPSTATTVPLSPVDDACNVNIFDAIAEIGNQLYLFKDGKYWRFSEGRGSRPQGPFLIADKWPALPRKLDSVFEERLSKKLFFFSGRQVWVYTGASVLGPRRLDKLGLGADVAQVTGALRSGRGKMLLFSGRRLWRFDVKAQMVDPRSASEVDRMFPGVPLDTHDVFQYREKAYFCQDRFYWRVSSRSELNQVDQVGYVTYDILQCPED
Chain of Nitric oxide synthase 1 (P29476 whole entry): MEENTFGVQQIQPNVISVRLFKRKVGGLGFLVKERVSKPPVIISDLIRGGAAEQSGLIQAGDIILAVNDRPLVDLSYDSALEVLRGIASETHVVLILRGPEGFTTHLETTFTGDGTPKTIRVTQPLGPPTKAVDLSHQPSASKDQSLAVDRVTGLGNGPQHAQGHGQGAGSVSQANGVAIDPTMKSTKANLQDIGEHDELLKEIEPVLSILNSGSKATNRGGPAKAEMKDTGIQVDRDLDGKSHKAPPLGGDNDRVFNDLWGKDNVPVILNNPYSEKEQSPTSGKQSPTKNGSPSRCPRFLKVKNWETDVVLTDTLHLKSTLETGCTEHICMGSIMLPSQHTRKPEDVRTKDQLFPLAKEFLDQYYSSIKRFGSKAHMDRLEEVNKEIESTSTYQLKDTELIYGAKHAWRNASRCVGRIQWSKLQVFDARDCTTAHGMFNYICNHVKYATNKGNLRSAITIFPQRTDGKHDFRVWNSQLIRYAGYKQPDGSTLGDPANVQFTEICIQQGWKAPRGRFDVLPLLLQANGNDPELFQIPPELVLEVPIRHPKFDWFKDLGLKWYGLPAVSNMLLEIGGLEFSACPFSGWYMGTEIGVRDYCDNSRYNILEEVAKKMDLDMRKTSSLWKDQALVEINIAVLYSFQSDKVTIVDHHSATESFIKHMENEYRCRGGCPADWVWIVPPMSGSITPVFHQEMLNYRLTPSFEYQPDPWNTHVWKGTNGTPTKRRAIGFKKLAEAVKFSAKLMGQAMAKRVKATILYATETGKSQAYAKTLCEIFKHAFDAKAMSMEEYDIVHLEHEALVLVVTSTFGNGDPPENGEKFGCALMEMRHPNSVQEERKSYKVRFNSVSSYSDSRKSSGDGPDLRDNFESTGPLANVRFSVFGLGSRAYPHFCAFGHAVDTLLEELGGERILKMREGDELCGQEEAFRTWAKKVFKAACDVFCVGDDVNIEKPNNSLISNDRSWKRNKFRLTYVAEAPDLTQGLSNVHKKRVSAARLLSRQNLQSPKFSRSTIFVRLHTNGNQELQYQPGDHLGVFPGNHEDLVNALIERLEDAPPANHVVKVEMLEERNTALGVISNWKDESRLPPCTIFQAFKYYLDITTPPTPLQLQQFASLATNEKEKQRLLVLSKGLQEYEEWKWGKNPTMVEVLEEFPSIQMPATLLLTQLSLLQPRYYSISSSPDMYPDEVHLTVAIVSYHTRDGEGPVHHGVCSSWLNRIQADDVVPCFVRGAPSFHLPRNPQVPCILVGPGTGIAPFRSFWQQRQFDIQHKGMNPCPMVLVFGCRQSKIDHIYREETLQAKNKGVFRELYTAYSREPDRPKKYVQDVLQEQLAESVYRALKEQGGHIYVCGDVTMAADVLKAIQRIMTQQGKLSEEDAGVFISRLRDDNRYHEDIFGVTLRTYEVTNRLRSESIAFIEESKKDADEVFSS
Chain of Mitogen-activated protein kinase 14 (Q16539 whole entry): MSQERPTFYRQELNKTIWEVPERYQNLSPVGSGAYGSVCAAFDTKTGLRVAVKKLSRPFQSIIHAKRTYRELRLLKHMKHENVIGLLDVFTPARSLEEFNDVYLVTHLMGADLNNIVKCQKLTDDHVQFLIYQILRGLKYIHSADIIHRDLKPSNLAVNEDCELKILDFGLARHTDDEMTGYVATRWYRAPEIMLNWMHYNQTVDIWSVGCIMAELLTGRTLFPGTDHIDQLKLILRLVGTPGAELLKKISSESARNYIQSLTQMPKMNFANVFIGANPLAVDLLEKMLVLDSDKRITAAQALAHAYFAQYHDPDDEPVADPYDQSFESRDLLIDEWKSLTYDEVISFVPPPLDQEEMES

CC(=O)[C@H]1[C@H](C#N)C[C@H]2[C@@H]3CC=C4C[C@@H](O)CC[C@]4(C)[C@H]3CC[C@@]21C [PREGNENOLONE CARBONITRILE]
Not Active: IC50 [1] | IC50 (Cytochrome P450 1A2) | Ki (Cytochrome P450 1A2) | IC50 (Nitric oxide synthase 1) | IC50 [2] | IC50 [3] | IC50 (Cytochrome P450 2C9) | Ki (Cytochrome P450 2C9)

CC(C(=O)O)c1cccc(Oc2ccccc2)c1 (configuration not stated) [FENOPROFEN]
Not Active: IC50 [1] | IC50 (Cytochrome P450 1A2) | Ki (Cytochrome P450 1A2) | IC50 (Nitric oxide synthase 1) | IC50 [2] | IC50 [3] | IC50 (Cytochrome P450 2C9) | Ki (Cytochrome P450 2C9)

NNc1nncc2ccccc12 [HYDRALAZINE]
Not Active: IC50 [1] | IC50 (Cytochrome P450 1A2) | Ki (Cytochrome P450 1A2) | IC50 (Nitric oxide synthase 1) | IC50 [2] | IC50 [3] | IC50 (Cytochrome P450 2C9) | Ki (Cytochrome P450 2C9)

O=C1O[C@H]([C@@H](O)CO)C(O)=C1O [ASCORBIC ACID]
Not Active: IC50 [1] | IC50 (Cytochrome P450 1A2) | Ki (Cytochrome P450 1A2) | IC50 (Nitric oxide synthase 1) | IC50 [2] | IC50 [3] | IC50 (Cytochrome P450 2C9) | Ki (Cytochrome P450 2C9)

NC(=O)C[S+]([O-])C(c1ccccc1)c1ccccc1 (configuration not stated) [MODAFINIL]
Not Active: IC50 [1] | IC50 (Cytochrome P450 1A2) | Ki (Cytochrome P450 1A2) | IC50 (Nitric oxide synthase 1) | IC50 [2] | IC50 [3] | IC50 (Cytochrome P450 2C9) | Ki (Cytochrome P450 2C9)

CCN(CC)CCOCCC1=CCC2CC1C2(C)C (configuration not stated) [MYRTECAINE]
Not Active: IC50 [1] | IC50 (Cytochrome P450 1A2) | Ki (Cytochrome P450 1A2) | IC50 (Nitric oxide synthase 1) | IC50 [2] | IC50 [3] | IC50 (Cytochrome P450 2C9) | Ki (Cytochrome P450 2C9)

COc1ccc2cc3[n+](cc2c1OC)CCc1cc2c(cc1-3)OCO2.[Cl-] [BERBERINE CHLORIDE]
Not Active: IC50 [1] | IC50 (Cytochrome P450 1A2) | Ki (Cytochrome P450 1A2) | IC50 (Nitric oxide synthase 1) | IC50 [2] | IC50 [3] | IC50 (Cytochrome P450 2C9) | Ki (Cytochrome P450 2C9)

GRAMICIDIN
Not Active: IC50 [1] | Ki [1] | IC50 (Cytochrome P450 1A2) | Ki (Cytochrome P450 1A2) | IC50 (Nitric oxide synthase 1) | Ki (Nitric oxide synthase 1) | IC50 [2] | Ki [2] | IC50 [3] | Ki [3] | IC50 (Cytochrome P450 2C9) | Ki (Cytochrome P450 2C9)

CCC1(C)CC(=O)NC1=O (configuration not stated) [ETHOSUXIMIDE]
Not Active: IC50 [1] | IC50 (Cytochrome P450 1A2) | Ki (Cytochrome P450 1A2) | IC50 (Nitric oxide synthase 1) | IC50 [2] | IC50 [3] | IC50 (Cytochrome P450 2C9) | Ki (Cytochrome P450 2C9)

Cc1nnc2n1-c1ccc(Cl)cc1C(c1ccccc1)=NC2 [ALPRAZOLAM]
Not Active: IC50 [1] | IC50 (Cytochrome P450 1A2) | Ki (Cytochrome P450 1A2) | IC50 (Nitric oxide synthase 1) | IC50 [2] | IC50 [3] | IC50 (Cytochrome P450 2C9) | Ki (Cytochrome P450 2C9)

COc1ccc(C(=O)N2CCCC2=O)cc1
Not Active: IC50 [1] | IC50 (Cytochrome P450 1A2) | Ki (Cytochrome P450 1A2) | IC50 (Nitric oxide synthase 1) | IC50 [2] | IC50 [3] | IC50 (Cytochrome P450 2C9) | Ki (Cytochrome P450 2C9)

GENTAMICIN
Not Active: IC50 [1] | Ki [1] | IC50 (Cytochrome P450 1A2) | Ki (Cytochrome P450 1A2) | IC50 (Nitric oxide synthase 1) | Ki (Nitric oxide synthase 1) | IC50 [2] | Ki [2] | IC50 [3] | Ki [3] | IC50 (Cytochrome P450 2C9) | Ki (Cytochrome P450 2C9)

CC(C)NNC(=O)c1ccncc1 [IPRONIAZID]
Not Active: IC50 [1] | IC50 (Cytochrome P450 1A2) | Ki (Cytochrome P450 1A2) | IC50 (Nitric oxide synthase 1) | IC50 [2] | IC50 [3] | IC50 (Cytochrome P450 2C9) | Ki (Cytochrome P450 2C9)

Nc1ccc2c3c(cccc13)C(=O)NC2=O
Not Active: IC50 [1] | IC50 (Cytochrome P450 1A2) | Ki (Cytochrome P450 1A2) | IC50 (Nitric oxide synthase 1) | IC50 [2] | IC50 [3] | IC50 (Cytochrome P450 2C9) | Ki (Cytochrome P450 2C9)

CC[C@H](C)[C@H]1O[C@]2(C=C[C@@H]1C)C[C@@H]1C[C@@H](C/C=C(\C)[C@@H](O[C@H]3C[C@H](OC)[C@@H](O[C@H]4C[C@H](OC)[C@@H](O)[C@H](C)O4)[C@H](C)O3)[C@@H](C)/C=C/C=C3\CO[C@@H]4[C@H](O)C(C)=C[C@@H](C(=O)O1)[C@]34O)O2.CO[C@H]1C[C@H](O[C@H]2[C@H](C)O[C@@H](O[C@@H]3/C(C)=C/C[C@@H]4C[C@@H](C[C@]5(C=C[C@H](C)[C@@H](C(C)C)O5)O4)OC(=O)[C@@H]4C=C(C)[C@@H](O)[C@H]5OC/C(=C\C=C\[C@@H]3C)[C@]54O)C[C@@H]2OC)O[C@@H](C)[C@@H]1O [ABAMECTIN]
Not Active: IC50 [1] | IC50 (Cytochrome P450 1A2) | Ki (Cytochrome P450 1A2) | IC50 (Nitric oxide synthase 1) | IC50 [2] | IC50 [3] | IC50 (Cytochrome P450 2C9) | Ki (Cytochrome P450 2C9)

C#C[C@]1(OC(C)=O)CC[C@H]2[C@@H]3CCC4=C[C@@H](OC(C)=O)CC[C@@H]4[C@H]3CC[C@@]21C [ETHYNODIOL DIACETATE]
Not Active: IC50 [1] | IC50 (Cytochrome P450 1A2) | Ki (Cytochrome P450 1A2) | IC50 (Nitric oxide synthase 1) | IC50 [2] | IC50 [3] | IC50 (Cytochrome P450 2C9) | Ki (Cytochrome P450 2C9)

CN/C(=N\CCSCc1nc[nH]c1C)NC#N [CIMETIDINE]
Not Active: IC50 [1] | IC50 (Cytochrome P450 1A2) | Ki (Cytochrome P450 1A2) | IC50 (Nitric oxide synthase 1) | IC50 [2] | IC50 [3] | IC50 (Cytochrome P450 2C9) | Ki (Cytochrome P450 2C9)

OC(CCCN1CCCCC1)(c1ccccc1)c1ccccc1 [DIPHENIDOL]
Not Active: IC50 [1] | IC50 (Cytochrome P450 1A2) | Ki (Cytochrome P450 1A2) | IC50 (Nitric oxide synthase 1) | IC50 [2] | IC50 [3] | IC50 (Cytochrome P450 2C9) | Ki (Cytochrome P450 2C9)

CCC(=O)O[C@]1(C(=O)CCl)[C@@H](C)C[C@H]2[C@@H]3CCC4=CC(=O)C=C[C@]4(C)[C@@]3(F)[C@@H](O)C[C@@]21C [CLOBETASOL PROPIONATE]
Not Active: IC50 [1] | IC50 (Cytochrome P450 1A2) | Ki (Cytochrome P450 1A2) | IC50 (Nitric oxide synthase 1) | IC50 [2] | IC50 [3] | IC50 (Cytochrome P450 2C9) | Ki (Cytochrome P450 2C9)

CCCN(CCC)S(=O)(=O)c1ccc(C(=O)O)cc1 [PROBENECID]
Not Active: IC50 [1] | IC50 (Cytochrome P450 1A2) | Ki (Cytochrome P450 1A2) | IC50 (Nitric oxide synthase 1) | IC50 [2] | IC50 [3] | IC50 (Cytochrome P450 2C9) | Ki (Cytochrome P450 2C9)

O=C(O)CCNC(=O)c1ccccc1 [BETAMIPRON]
Not Active: IC50 [1] | IC50 (Cytochrome P450 1A2) | Ki (Cytochrome P450 1A2) | IC50 (Nitric oxide synthase 1) | IC50 [2] | IC50 [3] | IC50 (Cytochrome P450 2C9) | Ki (Cytochrome P450 2C9)

C[C@H]1O[C@@H](n2cc(F)c(=O)[nH]c2=O)[C@H](O)[C@@H]1O [DOXIFLURIDINE]
Not Active: IC50 [1] | IC50 (Cytochrome P450 1A2) | Ki (Cytochrome P450 1A2) | IC50 (Nitric oxide synthase 1) | IC50 [2] | IC50 [3] | IC50 (Cytochrome P450 2C9) | Ki (Cytochrome P450 2C9)

CC[C@H]1CN2CCc3cc(OC)c(OC)cc3[C@@H]2C[C@@H]1C[C@H]1NCCc2cc(OC)c(OC)cc21 [EMETINE]
Not Active: IC50 [1] | IC50 (Cytochrome P450 1A2) | Ki (Cytochrome P450 1A2) | IC50 (Nitric oxide synthase 1) | IC50 [2] | IC50 [3] | IC50 (Cytochrome P450 2C9) | Ki (Cytochrome P450 2C9)
